# Assay results reported in doi:10.1101/2025.08.21.671483v1, “In vitro and in vivo activity profiles of broad-spectrum bacterial ATP synthase inhibitors” (biorxiv, 2025).
# Where two headings read alike, the source gives them in different places.
# Assays:
# S. aureus ATP synthase = biological target: T1, S. aureus ATP synthase (Staphylococcus aureus, UniProt Q99SF0); experiment: ATP production by membrane vesicles, luciferase luminescence; format: biochemical; settings: […] NADH, 1 mM ADP, 10 mM potassium phosphate; 30 min preincubation, 60 min reaction
# T1 construct: gene atpE
# Source text: ATP production by membrane vesicles, luciferase luminescence on S. aureus ATP synthase
# E. coli ATP synthase [1] = biological target: T2, E. coli ATP synthase (Escherichia coli, UniProt P68699); experiment: as above; format: biochemical; settings: […] NADH, 1 mM ADP, 10 mM potassium phosphate; 30 min preincubation, 60 min reaction
# T2 construct: gene atpE
# Source text: ATP production by membrane vesicles, luciferase luminescence on E. coli ATP synthase
# E. coli ATCC 25922 = system: T3, E. coli ATCC 25922; experiment: microbe, parasite or virus in culture; parameters: species or system bacteria; CLSI broth microdilution MIC, no visible growth; settings: Escherichia coli
# T3 construct: ATCC 25922
# E. coli MC4100 WT = system: T4, E. coli MC4100 WT; experiment: microbe, parasite or virus in culture; parameters: species or system bacteria; CLSI broth microdilution MIC, no visible growth; settings: Escherichia coli, MC4100WT
# T4 construct: MC4100 (ATCC 35695)
# [2] = system: T5, S. aureus ATCC 29740 (Newbould); experiment: microbe, parasite or virus in culture; parameters: species or system bacteria; CLSI broth microdilution MIC, no visible growth; settings: Staphylococcus aureus
# T5 construct: ATCC 29740 (Newbould)
# E. coli MC4100 lptD4213 = system: T6, E. coli MC4100 lptD4213; experiment: microbe, parasite or virus in culture; settings: Escherichia coli, MC4100LPTD4213, read-out: MIC
# T6 construct: MC4100 lptD4213 membrane-compromised
# E. coli MC4100 acrAB = system: T7, E. coli MC4100 acrAB; experiment: microbe, parasite or virus in culture; settings: Escherichia coli, MC4100ACRAB, read-out: MIC
# T7 construct: MC4100 acrAB efflux-deficient
# S. aureus ATCC 29740hemB = experiment: microbe, parasite or virus in culture; settings: Staphylococcus aureus, ATCC29740HEMB, read-out: MIC
# [3] = system: T8, Escherichia coli 70122 CW-2007; experiment: microbe, parasite or virus in culture; parameters: species or system bacteria; CLSI broth microdilution MIC, no visible growth
# T8 construct: 70122 CW-2007
# [4] = system: T9, Escherichia coli 95882 CW-2011; experiment: microbe, parasite or virus in culture; parameters: species or system bacteria; CLSI broth microdilution MIC, no visible growth
# T9 construct: 95882 CW-2011
# [5] = system: T10, Escherichia coli ATCC 35218; experiment: microbe, parasite or virus in culture; parameters: species or system bacteria; CLSI broth microdilution MIC, no visible growth
# T10 construct: ATCC 35218
# [6] = system: T11, Escherichia coli ATCC BAA2471; experiment: microbe, parasite or virus in culture; parameters: species or system bacteria; CLSI broth microdilution MIC, no visible growth
# T11 construct: ATCC BAA-2471
# Escherichia coli ec302 = system: T12, Escherichia coli ec302; experiment: microbe, parasite or virus in culture; parameters: species or system bacteria; CLSI broth microdilution MIC, no visible growth
# T12 construct: ec302
# Escherichia coli ec305 = system: T13, Escherichia coli ec305; experiment: microbe, parasite or virus in culture; parameters: species or system bacteria; CLSI broth microdilution MIC, no visible growth
# T13 construct: ec305
# Escherichia coli ec308 = system: T14, Escherichia coli ec308; experiment: microbe, parasite or virus in culture; parameters: species or system bacteria; CLSI broth microdilution MIC, no visible growth
# T14 construct: ec308
# Escherichia coli ec309 = system: T15, Escherichia coli ec309; experiment: microbe, parasite or virus in culture; parameters: species or system bacteria; CLSI broth microdilution MIC, no visible growth
# T15 construct: ec309
# Escherichia coli ec310 = system: T16, Escherichia coli ec310; experiment: microbe, parasite or virus in culture; parameters: species or system bacteria; CLSI broth microdilution MIC, no visible growth
# T16 construct: ec310
# [7] = system: T17, Escherichia coli ATCC 25922; experiment: microbe, parasite or virus in culture
# T17 construct: ATCC 25922
# E. coli ATP synthase [8] = biological target: T2, E. coli ATP synthase; experiment: ATP synthesis kinetics, membrane vesicles, luciferase luminescence; format: biochemical; settings: ADP varied 0.05-1 mM, NADH-driven, pre-exposure 0-10 min
# [9] = system: T18, Citrobacterfreundii ATCC 8090; experiment: organism not typed; parameters: species or system bacteria; CLSI broth microdilution MIC, no visible growth; settings: read-out: Table 5 TM-184 MIC
# T18 construct: ATCC 8090
structure (smiles),measurement,setting,value
C[C@H]1CC[C@]2(NC1)O[C@H]1C[C@H]3[C@@H]4CC[C@H]5CC(NCCN)CC[C@]5(C)[C@H]4CC[C@]3(C)[C@H]1[C@@H]2C (mixture of isomers) [TM-02],IC50,S. aureus ATP synthase,510 ± 170 nM
same,IC50,E. coli ATP synthase [1],1490 ± 280 nM
same,MIC,"E. coli ATCC 25922; ATCC25922, read-out: TM-02 MIC",32 µg/mL
same,MIC,E. coli MC4100 WT; read-out: TM-02 MIC,16 µg/mL
same,MIC,"[2]; ATCC29740, read-out: TM-02 MIC",4 µg/mL
same,MIC,E. coli MC4100 lptD4213,0.5 µg/mL
same,MIC,E. coli MC4100 acrAB,8 µg/mL
same,MIC,S. aureus ATCC 29740hemB,≤ 0.25 µg/mL
same,MIC,"[3]; 70122CW2007, read-out: Table 3 TM-02 MIC",16 µg/mL
same,MIC,"[4]; 95882CW2011, read-out: Table 3 TM-02 MIC",32 µg/mL
same,MIC,"[5]; ATCC35218, read-out: Table 3 TM-02 MIC",32 µg/mL
same,MIC,"[6]; ATCCBAA2471, read-out: Table 3 TM-02 MIC",32 µg/mL
same,MIC,"Escherichia coli ec302; EC302, read-out: Table 3 TM-02 MIC",32 µg/mL
same,MIC,"Escherichia coli ec305; EC305, read-out: Table 3 TM-02 MIC",4 µg/mL
same,MIC,"Escherichia coli ec308; EC308, read-out: Table 3 TM-02 MIC",8 µg/mL
same,MIC,"Escherichia coli ec309; EC309, read-out: Table 3 TM-02 MIC",32 µg/mL
same,MIC,"Escherichia coli ec310; EC310, read-out: Table 3 TM-02 MIC",32 µg/mL
same,MIC,"[7]; ATCC25922, read-out: MIC (ug/ml) first column",32 µg/mL
"O=[N+]([O-])c1ccc(Cl)c2nonc12 [4-chloro-7-nitrobenzofurazan, reference compound]",Ki,"E. coli ATP synthase [8]; positive control, covalent",1800 nM
C[C@H]1CC[C@]2(NC1)O[C@H]1C[C@H]3[C@@H]4CC[C@H]5CC(NC[C@H](N)Cc6ccc(I)cc6)CC[C@]5(C)[C@H]4CC[C@]3(C)[C@H]1[C@@H]2C (mixture of isomers) [TM-184],Ki,E. coli ATP synthase [8],800 to 1300 nM
same,IC50,S. aureus ATP synthase,700 ± 330 nM
same,IC50,E. coli ATP synthase [1],1570 ± 170 nM
same,MIC,"E. coli ATCC 25922; ATCC25922, read-out: TM-184 MIC",4 µg/mL
same,MIC,E. coli MC4100 WT; read-out: TM-184 MIC,8 µg/mL
same,MIC,"[2]; ATCC29740, read-out: TM-184 MIC",2 µg/mL
same,MIC,E. coli MC4100 lptD4213,2 µg/mL
same,MIC,E. coli MC4100 acrAB,4 µg/mL
same,MIC,S. aureus ATCC 29740hemB,≤ 0.25 µg/mL
same,MIC,"[3]; 70122CW2007, read-out: Table 3 TM-184 MIC",16 µg/mL
same,MIC,"[4]; 95882CW2011, read-out: Table 3 TM-184 MIC",16 µg/mL
same,MIC,"[5]; ATCC35218, read-out: Table 3 TM-184 MIC",16 µg/mL
same,MIC,"[6]; ATCCBAA2471, read-out: Table 3 TM-184 MIC",16 µg/mL
same,MIC,"Escherichia coli ec302; EC302, read-out: Table 3 TM-184 MIC",16 µg/mL
same,MIC,"Escherichia coli ec305; EC305, read-out: Table 3 TM-184 MIC",2 µg/mL
same,MIC,"Escherichia coli ec308; EC308, read-out: Table 3 TM-184 MIC",4 µg/mL
same,MIC,"Escherichia coli ec309; EC309, read-out: Table 3 TM-184 MIC",16 µg/mL
same,MIC,"Escherichia coli ec310; EC310, read-out: Table 3 TM-184 MIC",16 µg/mL
same,MIC,[9],8 µg/mL
same,MIC,"[7]; ATCC25922, read-out: MIC (ug/ml) second column",4 µg/mL
